Measurements as given in US12577232B2, “N-heterocycle substituted tryptamine derivatives and methods of using” (ENVERIC B[…] INC., priority 2024, dated 2026).

Experiments:
5-HT2A receptor [1] = target: T1, 5-HT2A receptor (Homo sapiens, UniProt P28223); experiment: Functional cell-based 5-HT2A assay, agonism mode (CHO-K1/5-HT2A, Fluo-8 calcium flux); conditions: CHO-K1/5-HT2A cells
T1 construct: purchased PerkinElmer ES-313-M400UA
Description: Herein, functional, cell-based assays were conducted to determine (1) agonist potency and efficacy of drugs at the 5-HT2A receptor (agonist mode), and (2) antagonist potency at the 5-HT2A receptor (antagonist mode).
All cells were grown and maintained as a monolayer in Ham's F12 nutrient mix supplemented with 10% fetal bovine serum (FBS) and 400 μg/mL geneticin (G418) all from ThermoFisher Scientific and used according to the manufacturer's instructions. Cells were cultured and incubated at 37° C. in a humidified oxygen atmosphere with 5% CO2. To evaluate the activation of 5-HT2A signal transduction, cells were first seeded in tissue culture-treated, black-walled, clear-bottom 96-well plates (Thermo Scientific) at a density of 40,000 cells/well in 100 pl Ham's F12 nutrient mix supplemented with 2% FBS. Cells were cultured for 24 h in a humidified incubator at 37° C. and 5% CO2. Cells were then loaded with Fluo-8 calcium indicator dye for 1 h at 37° C. and an additional 30 min at room temperature as per the manufacturer's protocol. […] Kinetic increases in intracellular calcium levels were measured immediately after addition of test compounds every 6.4 s for a total of 3 min using the FlexStation 3 multimode microplate reader and SoftMax Pro 7.1 analysis software (Molecular Devices, moleculardevices.com). […] EC50 values were calculated from the normalized data from GraphPad PRISM software.

5-HT2A receptor [2] = target: T1, 5-HT2A receptor; experiment: Functional cell-based 5-HT2A assay, antagonism mode (CHO-K1/5-HT2A, 100 nM serotonin, calcium flux); conditions: CHO-K1/5-HT2A cells, with 100 nM serotonin
Text: A variety of 5-HT2A receptor engagement modes have been correlated with positive outcomes in the treatment of neurological disorders. While agonism is associated with a host of favourable effects, antagonizing the 5-HT2A receptor is also an attractive pharmacological approach. For example, antagonism is known to alleviate both dyskinesisa and psychosis in Parkinson's Disorder and holds promise for other psychiatric diseases (Mestre et al., 2013, Expert Opin. Investig. Drugs 22:411-421). Similarly positive outcomes are noted for inverse agonists (Cummings et al., 2014, Lancet, 383:533-540; Roberts, 2006, Curr. Opin. Invest. Drugs 7:653-660). […]
Stimulation of 5-HT2A coupled to the Gq family proteins leads to activation of the phospholipase C (PLC) pathway, ultimately resulting in the accumulation of cytosolic calcium (Cussac et al., Europ. J. Pharmacol., 2008, 594 (1-3), 32-38). […] Kinetic increases in intracellular calcium levels were measured immediately after addition of ligands every 6.4 s for a total of 3 min using the FlexStation 3 multimode microplate reader and SoftMax Pro 7.1 analysis software (Molecular Devices, moleculardevices.com). […] IC50 values were calculated from the normalized data from GraphPad PRISM software. […]

[3] = system: stressed C57BL/6-Elite mice; experiment: Mouse marble burying (MB) assay to assess anxiolytic potential; format: in vivo; conditions: i.p., psilocin 3 mg/kg, compound (XV) 10 mg/kg; vs Vehicle+Stress
Description: Marble burying behavior is used to measure the level of anxiety in a rodent when it encounters unfamiliar objects (Deacon, 2006, Nature Protocols 1:122-124). This assay is routinely applied to the study of chronically stressed mice, where drug candidates are evaluated for an ability to diminish stress-induced, anxiety-like behaviours (e.g., Wang et al., ACS Chem. Neurosci. 14:977-987). Positive results in this assay may be interpreted as an indication of therapeutic (anxiolytic) potential in the treatment of various psychiatric disorders. Herein, we applied the marble burying model to investigate whether selected drugs could alleviate anxiety behaviour in stressed mice.
All animal protocols were approved by the University of Calgary Animal Care and Use Committee. C57BL/6-Elite mixed sex mice were obtained from Charles River Laboratories (Toronto, Canada) at 8-9 weeks old. […]
On the testing days, 10 glass marbles (approx. 15 mm in diameter) were evenly spaced on 5 cm of wood-chip bedding (lightly tamped down to make a flat and even surface). […] The number of marbles buried to ⅔rds their depth was measured. Fully buried marbles were counted as 1 and partially (at least ⅔rds) buried marbles were counted as 0.5. […]

[4] = system: stressed C57BL/6-Elite mice; experiment: Mouse sucrose preference (SP) assay to assess antidepressant potential; format: in vivo; conditions: i.p., psilocin 3 mg/kg, compound (XV) 10 mg/kg; one day after administration
Description: Reduced intake of pleasurable substances, e.g., of sucrose water, is a validated behavioral measure of anhedonic/depressive-like state in rodents (Moreau et al., 1992, Eur. Neurpsychopharmocol. 2:43-49; Liu et al., 2018, Nature Protocols 13:1686-1698). […] In the SP assay, cohorts of mice are pre-stressed, leading to a depressed state. The ability of drugs to rescue this state are evaluated.
All animal protocols were approved by the University of Calgary Animal Care and Use Committee. C57BL/6-Elite mixed sex mice were obtained from Charles River Laboratories (Toronto, Canada) at 8-9 weeks old. Mice were maintained on a 12:12 h light/dark schedule (lights on at 07:00 hours) with ad libitum access to food and water and group-housed until 2 days prior to the start of the mild chronic stress paradigm, then mice were single-housed. […]
Mice were introduced to 1% sucrose solution in their drinking water for 24 hrs for 2 days prior to initial sucrose preference testing to reduce impact of novelty. […] The consumption in water, sucrose solution, and total intake of liquids was measured by weighing each bottle before and after the 24-hr experiment. The preference for sucrose was calculated as a percentage of the consumed sucrose solution from the total intake of both water and sucrose solutions. […]

T1 sequence (P28223 whole entry): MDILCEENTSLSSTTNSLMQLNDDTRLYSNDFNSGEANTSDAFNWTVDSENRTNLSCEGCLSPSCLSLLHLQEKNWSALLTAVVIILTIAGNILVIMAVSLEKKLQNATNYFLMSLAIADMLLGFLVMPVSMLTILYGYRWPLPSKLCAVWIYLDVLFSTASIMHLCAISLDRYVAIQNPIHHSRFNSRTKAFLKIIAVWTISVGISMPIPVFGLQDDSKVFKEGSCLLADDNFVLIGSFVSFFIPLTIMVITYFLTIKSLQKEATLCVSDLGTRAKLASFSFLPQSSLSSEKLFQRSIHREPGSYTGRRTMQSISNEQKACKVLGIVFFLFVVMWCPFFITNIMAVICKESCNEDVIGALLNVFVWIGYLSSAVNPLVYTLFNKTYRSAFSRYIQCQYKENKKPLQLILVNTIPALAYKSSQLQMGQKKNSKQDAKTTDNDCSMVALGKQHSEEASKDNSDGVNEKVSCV

SMILES: CN(C)CCc1c[nH]c2cc(F)cc(N3CCOCC3)c12 [Compound (XV)]
- engagement at the 5-HT2A receptor, agonist mode (5-HT2A receptor [1]): agonism
- engagement at the 5-HT2A receptor, antagonist mode (5-HT2A receptor [2]): antagonism
- anxiety-linked (marble burying) behavior in stressed mice [3]: alleviated
- sucrose preference behaviour in stressed mice vs no drug control [4]: significant preference for sucrose
